This passage reports DC50 results from patent US11691972B2, “Compounds for targeted degradation of BRD9” (C4 Therapeutics, Inc., priority 2020, dated 2023).

The first assay addresses T1, BRD9 (Homo sapiens, UniProt Q9H8M2).
T1 sequence (Q9H8M2 1-597): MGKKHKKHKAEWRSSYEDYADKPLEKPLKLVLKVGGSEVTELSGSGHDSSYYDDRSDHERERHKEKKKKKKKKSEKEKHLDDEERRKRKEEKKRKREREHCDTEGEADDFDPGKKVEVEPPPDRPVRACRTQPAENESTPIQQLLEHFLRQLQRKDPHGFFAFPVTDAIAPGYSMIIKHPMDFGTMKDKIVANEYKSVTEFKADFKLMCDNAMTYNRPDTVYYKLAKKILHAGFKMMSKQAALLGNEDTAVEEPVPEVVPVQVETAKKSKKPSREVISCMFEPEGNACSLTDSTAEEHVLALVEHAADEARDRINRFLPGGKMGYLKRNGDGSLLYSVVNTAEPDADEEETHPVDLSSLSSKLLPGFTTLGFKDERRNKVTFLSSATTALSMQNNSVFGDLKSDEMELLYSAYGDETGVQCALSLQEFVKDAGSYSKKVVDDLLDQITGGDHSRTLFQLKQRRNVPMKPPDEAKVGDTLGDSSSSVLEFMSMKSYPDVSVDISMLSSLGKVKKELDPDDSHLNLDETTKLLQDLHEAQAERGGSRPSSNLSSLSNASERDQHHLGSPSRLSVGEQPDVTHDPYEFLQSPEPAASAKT
In words: HiBiT BRD9 degradation assay in 293T.166 (BRD9-HiBiT) cells. The assay is classed as cell-based. Further details: endogenously expressing BRD9 with HiBiT fusion tag via CRISPR; host or cells: 293T.166 (BRD9-HiBiT), also expressing LgBiT ectopically. As to conditions: Table 1; 293T.166 cells, 2.0 hours; class symbols; read-out: HiBiT-Degradation 293T.166 BRD9 2.0 hours (DC50). The gist of the method: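 Luminescence from the Nano-Glo HiBiT lytic reagent quantified BRD9 loss after compounds (top 10 μM, half-log, 11 points, duplicates) were incubated 2 h at 37° C. with 10,000 293T.166 BRD9-HiBiT/LgBiT cells per well, with controls lacking compound or lacking reagent.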
By DC50 is commonly meant the midpoint of the concentration-degradation curve. `COc1cc(-c2cn(C)c(=O)c3cnccc23)cc(Cl)c1CN1CCC(C2CCN(c3ccc(NC4CCC(=O)NC4=O)cc3C(F)(F)F)CC2)CC1` (centres unmarked) [Compound 83, 3-[4-[4-[1-[[2-chloro-6-methoxy-4-(2-methyl-1-oxo-2,7-naphthyridin-4-yl)phenyl]methyl]-4-piperidyl]-1-piperidyl]-3-(trifluoromethyl)anilino]piperidine-2,6-dione]: the DC50 is < 100 nM.
For `COc1cc(-c2cn(C)c(=O)c3[nH]ncc23)cc(F)c1C(=O)N1CCC(N(C)C(=O)N2CCC(c3ccc(NC4CCC(=O)NC4=O)cc3)CC2)CC1` (centres unmarked) [Compound 134], the DC50 was < 100 nM.
As for `COc1cc(-c2cn(C)c(=O)c3cnccc23)cc(Cl)c1CN1CCc2c(cccc2CN2CCC(c3ccc(NC4CCC(=O)NC4=O)cc3)C(F)(F)C2)C1` (centres unmarked) [Compound 99], the DC50 is < 100 nM.
Regarding `COc1cc(-c2cn(C)c(=O)c(C)c2C)cc(Cl)c1C(=O)N1CCC(C2CCN(c3ccc(NC4CCC(=O)NC4=O)cc3F)CC2)CC1` (centres unmarked) [Compound 208, 3-[4-[4-[1-[2-chloro-6-methoxy-4-(1,4,5-trimethyl-6-oxo-3-pyridyl)benzoyl]-4-piperidyl]-1-piperidyl]-3-fluoro-anilino]piperidine-2,6-dione], the 50% degradation concentration (DC50) is < 100 nM.
The same measure, in the same setting: to `COc1cc(-c2cn(C)c(=O)c(C)c2C)cc(OC)c1CN1CCC(N2CCN(c3ccc(NC4CCC(=O)NC4=O)cc3Cl)CC2)C(F)(F)C1` (centres unmarked) [Compound 187] belongs < 100 nM; to `COc1cc(-c2cn(C)c(=O)c3[nH]ncc23)cc(OC)c1CN1CCN(C(=O)CN2CCC(c3ccc(NC4CCC(=O)NC4=O)cc3C(F)F)CC2)CC1` (centres unmarked) [Compound 11], < 100 nM; to `COc1cc(-c2cn(C)c(=O)c3cnccc23)cc(Cl)c1CN1CCC(N2CCN(c3ccc(NC4CCC(=O)NC4=O)cc3F)CC2)C(F)(F)C1` (single isomer, unassigned) [Compound 179, 3-[4-[4-[1-[[2-chloro-6-methoxy-4-(2-methyl-1-oxo-2,7-naphthyridin-4-yl)phenyl]methyl]-3,3-difluoro-4-piperidyl]piperazin-1-yl]-3-fluoro-anilino]piperidine-2,6-dione], < 100 nM.
Still for that read-out and setting: the figure for `COc1cc(-c2cn(C)c(=O)c3[nH]ncc23)cc(OC)c1CN1CCN(C(=O)CC2CCN(c3ccc(NC4CCC(=O)NC4=O)cc3C(F)(F)F)CC2)CC1` (centres unmarked) [Compound 52, 3-[4-[4-[2-[4-[[2,6-dimethoxy-4-(6-methyl-7-oxo-1H-pyrazolo[3,4-c]pyridin-4-yl)phenyl]methyl]piperazin-1-yl]-2-oxo-ethyl]-1-piperidyl]-3-(trifluoromethyl)anilino]piperidine-2,6-dione] is < 100 nM; for `COc1cc(-c2cn(C)c(=O)c3ccccc23)cc(OC)c1CN1CCN(C(=O)CN2CCC(c3ccc(NC4CCC(=O)NC4=O)cc3)CC2)CC1` (centres unmarked) [Compound 28] it is < 100 nM.
On the same count and under the same terms, the figure for `COc1cc(-c2cn(C)c(=O)c3[nH]ncc23)cc(Cl)c1CN1CCC(CC(=O)N2CCC(c3ccc(NC4CCC(=O)NC4=O)cc3)CC2)C(F)(F)C1` (single isomer, unassigned) [Compound 203, 3-[4-[1-[2-[1-[[2-chloro-6-methoxy-4-(6-methyl-7-oxo-1H-pyrazolo[3,4-c]pyridin-4-yl)phenyl]methyl]-3,3-difluoro-4-piperidyl]acetyl]-4-piperidyl]anilino]piperidine-2,6-dione] is < 100 nM.
Consider `COc1cc(-c2cn(C)c(=O)c3[nH]ncc23)c(Cl)cc1CN1CCN(C(=O)CN2CCC(c3ccc(NC4CCC(=O)NC4=O)cc3)CC2)CC1` (centres unmarked) [Compound 19], for which the DC50 is < 100 nM.
On the same count and under the same terms, to `Cc1c(-c2ccc(CN3CCC(F)(C4CCN(c5ccc(NC6CCC(=O)NC6=O)cc5F)CC4)CC3)c(OC(F)(F)F)c2)cn(C)c(=O)c1C` (centres unmarked) [Compound 244] belongs < 100 nM; to `COc1cc(-c2cn(C)c(=O)c3cnccc23)cc(F)c1C(=O)N1CCC(C2CCN(c3ccc(NC4CCC(=O)NC4=O)cc3F)CC2)CC1` (centres unmarked) [Compound 215], < 100 nM; to `COc1cc(-c2cn(C)c(=O)c(C)c2C)cc(Cl)c1CN1CCC(N2CCN(c3ccc(NC4CCC(=O)NC4=O)cc3F)CC2)C(F)(F)C1` (centres unmarked) [Compound 190], < 100 nM.
On to `COc1cc(-c2cn(C)c(=O)c3cnccc23)cc(OC)c1CN1CCN(C(=O)CC2CCN(c3ccc(NC4CCC(=O)NC4=O)cc3C(F)(F)F)CC2)CC1` (single isomer, unassigned) [Compound 55], for which the DC50 was < 100 nM.
Regarding `COc1cc(-c2cn(C)c(=O)c3cnccc23)cc(F)c1CN1CCC(N(C)C(=O)N2CCC(c3ccc(NC4CCC(=O)NC4=O)cc3)CC2)C(F)(F)C1` (centres unmarked) [Compound 124], the DC50 was < 100 nM.
Still for that read-out and setting: to `COc1cc(-c2cn(C)c(=O)c(C)c2C)cc(Cl)c1CN1CCC(C2CCN(c3ccc(NC4CCC(=O)NC4=O)cc3F)CC2)CC1` (centres unmarked) [Compound 74] belongs < 100 nM; to `COc1cc(-c2cn(C)c(=O)c3[nH]ncc23)cc(F)c1CN1CCC(O)(CC(=O)N2CCC(c3ccc(NC4CCC(=O)NC4=O)cc3F)CC2)CC1` (centres unmarked) [Compound 154], < 100 nM; to `COc1cc(-c2cn(C)c(=O)c3[nH]ncc23)cc(Cl)c1CN1CCC(C2CCN(c3ccc(NC4CCC(=O)NC4=O)cc3Cl)CC2)CC1` (centres unmarked) [Compound 75], < 100 nM.
Turning to `COc1cc(-c2cn(C)c(=O)c3[nH]ncc23)cc(F)c1CN1CCN(C(=O)CN2CCC(c3ccc(NC4CCC(=O)NC4=O)cc3C(F)(F)F)CC2)CC1` (centres unmarked) [Compound 23], the DC50 is < 100 nM.
Consider `COc1cc(-c2cn(C)c(=O)c3[nH]ncc23)cc(F)c1CC1CCN(CC(=O)N2CCC(c3ccc(NC4CCC(=O)NC4=O)cc3)CC2)CC1` (centres unmarked) [Compound 156, 3-[4-[1-[2-[4-[[2-fluoro-6-methoxy-4-(6-methyl-7-oxo-1H-pyrazolo[3,4-c]pyridin-4-yl)phenyl]methyl]-1-piperidyl]acetyl]-4-piperidyl]anilino]piperidine-2,6-dione], for which the DC50 is < 100 nM.
`Cn1cc(-c2ccc(CN3CCc4c(cccc4CN4CCC(c5ccc(NC6CCC(=O)NC6=O)cc5)C(F)(F)C4)C3)c(OC(F)(F)F)c2)c2cn[nH]c2c1=O` (centres unmarked) [Compound 101]: the DC50 is < 100 nM.

The assay is the same for the next values; noted with them: Table 2; 293T.166 cells, 2.0 hours; class symbols; read-out: HiBiT-Degradation 293T.166 BRD9 2.0 hours (DC50).
Consider `COc1cc(-c2cn(C)c(=O)c(C)c2C)cc(OC)c1CN1C2CCC1CN(C(=O)CC1CCN(c3ccc(NC4CCC(=O)NC4=O)nc3)CC1)C2` (centres unmarked) [Compound 272], for which the half-maximal degradation concentration (DC50) is < 100 nM.
Same read-out and setting: the figure for `COc1cc(-c2cn(C)c(=O)c(C)c2C)cc(Cl)c1CN1CCC(C2CCN(c3ccc(NC4CCC(=O)NC4=O)cc3F)CC2)C(F)(F)C1` (single isomer, unassigned) [Compound 258] is 100 to 500 nM; for `COc1cc(-c2cn(C)c(=O)c3cnccc23)cc(Cl)c1CN1CCC(N2CCN(c3ccc(N(C)C4CCC(=O)NC4=O)cc3F)CC2)C(F)(F)C1` (centres unmarked) [Compound 254, 3-[4-[4-[1-[[2-chloro-6-methoxy-4-(2-methyl-1-oxo-2,7-naphthyridin-4-yl)phenyl]methyl]-3,3-difluoro-4-piperidyl]piperazin-1-yl]-3-fluoro-N-methyl-anilino]piperidine-2,6-dione] it is < 100 nM.
The same measure, in the same setting: to `COc1cc(-c2cn(C)c(=O)c(C)c2C)cc(Cl)c1CN1CCc2c(CC3CCN(c4ccc(NC5CCC(=O)NC5=O)nc4)CC3)cccc2C1` (centres unmarked) [Compound 264, 3-[[5-[4-[[2-[[2-chloro-6-methoxy-4-(1,4,5-trimethyl-6-oxo-3-pyridyl)phenyl]methyl]-3,4-dihydro-1H-isoquinolin-5-yl]methyl]-1-piperidyl]-2-pyridyl]amino]piperidine-2,6-dione] belongs < 100 nM.
